Columns and labels:
[1] = test system: chronic prosthetic joint infections caused by Gram-positive bacteria; test: Microbiological and clinical cure after two-stage exchange with a single 1,500 mg dose; assay type: in vivo, human
[2] = cited from earlier work
Experimental: Our observations were best described by a one-compartment model, which is in accordance with the sparse data gathered from routine clinical practice ([40]). […] A potential explanation is that the studies that report higher CL were performed ...

[3] = Adverse events attributable to dalbavancin during follow-up; assay type: in vivo, human; details: single 1,500 mg i.v. dose, over administration and during follow-up, including changes in renal function; 20 patients
[4] = clinical; details: human, in vivo, iv, 1500 mg
[5] = Population pharmacokinetic analysis (Monolix); assay type: in vivo, human
Experimental: The non-linear mixed-effect modeling software Monolix 2024R1 (Lixoft SAS, a Simulations Plus company) implementing the stochastic approximation expectation maximization algorithm was used for model development ([18]).
One- and multicompartment models with first-order elimination were tested. All individual parameters were assumed to be log-normally distributed. Inter-individual variability (IIV) was described using an exponential model. To describe residual variability, several error models (constant, proportional, or combined error model) were tested. The most appropriate structural model was selected based on the following criteria: Akaike information criterion, corrected Bayesian information criterion, usual goodness-of-fit plots, and relative standard errors. […] Model internal validation was based on goodness-of-fit plots, including observations versus individual (IPRED) and population predictions (PRED) and plots of normalized prediction distribution error (NPDE) versus PRED and time. A prediction-corrected visual predictive check (pc-VPC) was performed using 500 simulations with the final model ([21]), and non-parametric bootstrapping (n = 1,000) was used for assessing stability and robustness of the final model using Monolix 2024R1.

[6] = single 1,000 mg dose, 2 weeks post-administration, non-infected patients undergoing elective orthopedic surgery; cited from earlier work
Text: Assessment of optimal antibiotic exposure at the site of the infection is challenging, especially for deep-seated infections, such as bone and joint, and often unbound plasma exposure is used as a worst-case scenario surrogate for target site exposure assuming that only the free (unbound) concentration can distribute to peripheral tissues ([37]). However, drug PK in the peripheral tissues depends not only on protein binding but also on other characteristics, such as drug’s molecular weight and physiochemistry, varying broadly across antibiotic classes ([38]). For dalbavancin, Dunne et al. perf ...

[7] = non-parametric bootstrap n = 1,000
[8] = one-compartment model, total concentrations, 18 patients with CPJI, single 1,500 mg i.v.

What does the source list for `CN[C@H]1C(=O)N[C@@H]2Cc3ccc(cc3)Oc3cc4cc(c3O[C@@H]3O[C@H](C(=O)O)[C@@H](O)[C@H](O)[C@H]3NC(=O)CCCCCCCCC(C)C)Oc3ccc(cc3Cl)[C@@H](O)[C@@H]3NC(=O)[C@H](NC(=O)[C@@H]4NC(=O)[C@@H](NC2=O)c2cc(cc(O)c2Cl)Oc2cc1ccc2O)c1ccc(O)c(c1)-c1c(O[C@H]2O[C@H](CO)[C@@H](O)[C@H](O)[C@@H]2O)cc(O)cc1[C@@H](C(=O)NCCCN(C)C)NC3=O` [dalbavancin]?
Clinical failures or relapses ([1]; median follow-up of 693 days (IQI 630–824) after the second-stage procedure): no clinical failures or relapses; Second-stage surgery isolates ([1]; patient 2, hip, first-stage S. lugdunensis, after Daptomycin (4)-Cefazolin (7) days): No growth; Second-stage surgery isolates ([1]; patient 3, hip, first-stage E. faecalis, after Daptomycin (4)-Ampicillin (7) days): No growth; Second-stage surgery isolates ([1]; patient 4, hip, first-stage S. hominis, after Vancomycin (6)-Linezolid (9) days): No growth; Second-stage surgery isolates ([1]; patient 5, hip, first-stage S. epidermidis, after Daptomycin (10) days): No growth; Second-stage surgery isolates ([1]; patient 6, hip, first-stage S. epidermidis, after Vancomycin (13)-Daptomycin (3) days): No growth; Second-stage surgery isolates ([1]; patient 7, shoulder, first-stage S. epidermidis, after Vancomycin (3)-Daptomycin (5) days): No growth; Second-stage surgery isolates ([1]; patient 8, knee, first-stage C. acnes, after Vancomycin (8) days): No growth; Second-stage surgery isolates ([1]; patient 9, hip, first-stage S. epidermidis, after Vancomycin (20) days): No growth; Second-stage surgery isolates ([1]; patient 10, hip, first-stage S. epidermidis, C. acnes, after Vancomycin (3)-Daptomycin (9) days): No growth; Second-stage surgery isolates ([1]; patient 11, knee, first-stage S. epidermidis, after Vancomycin (7) days): No growth; Second-stage surgery isolates ([1]; patient 12, knee, first-stage C. acnes, after Vancomycin (3)-Linezolid (5) days): No growth; Second-stage surgery isolates ([1]; patient 13, knee, first-stage S. epidermidis, after Vancomycin (10) days): No growth; Second-stage surgery isolates ([1]; patient 14, knee, first-stage S. epidermidis, after Vancomycin (7)-Linezolid (5) days): No growth; Second-stage surgery isolates ([1]; patient 15, hip, first-stage S. capitis, C. acnes, after Vancomycin (7)-Daptomycin (10) days): No growth; Second-stage surgery isolates ([1]; patient 16, knee, first-stage S. capitis, S. pettenkoferi, after Vancomycin (5)-Daptomycin (7) days): No growth; Second-stage surgery isolates ([1]; patient 17, shoulder, first-stage C. acnes, after Vancomycin (10) days): S. epidermidis S. hominis; Second-stage surgery isolates ([1]; patient 18, hip, first-stage S. epidermidis, after Vancomycin (10)-Linezolid (13) days): No growth; Second-stage surgery isolates ([1]; patient 19, hip, first-stage S. epidermidis, C. acnes, after Vancomycin (4)-Tedizolid (14) days): No growth; Second-stage surgery isolates ([1]; patient 20, hip, first-stage S. epidermidis, after Daptomycin (12) days): No growth; Microbiological cure rate ([1]; single 1,500 mg i.v. dose after median 11.5 days systemic antibiotics, vancomycin-gentamicin spacer, negative intraoperative cultures at second-stage surgery): 94.7%; CL reported in healthy volunteers and patients with acute infections [2]: 0.050 L/h; Adverse events [3]: No adverse events were reported; level at 336 h [4]: 58500 ng/mL; level at 504 h [4]: 29700 ng/mL; level at 672 h [4]: 13300 ng/mL; CL, clearance, bootstrap median (95% CI) [5, 7]: 0.037 (0.031–0.043) L/h; V, volume of distribution, bootstrap median (95% CI) [5, 7]: 18.0 (16.0–20.3) L; CL, clearance, estimate (% RSE) [5, 8]: 0.036 (8.2 %) [12.6%] L/h; V, volume of distribution, estimate (% RSE) [5, 8]: 17.9 (6.2 %) [18.1%] L; Measured amount in homogenized cortical bone [6]: 4.1 µg/g

Reference: publication PMC12691635 (Antimicrobial Agents and Chemotherapy, 2025)
